Assay results from US20180221457A1 (VAL-CHUM, LIMITED PARTNERSHIP, priority 2015, published 2018).

Experiments:
human G3PP (hG3PP) = target: T1, human G3PP (hG3PP) (Homo sapiens, UniProt A6NDG6); assay: Effect of organic acids on G3PP activity in hG3PP-overexpressing 293T cell extracts; format: biochemical; conditions: 10 mM Gro3P substrate, 2 or 10 mM test organic acid, 30 min at 30° C.
T1 construct: expressed in transfected cells; host or cells: 293T cells (whole cell extract)
T1 sequence (A6NDG6 1-321): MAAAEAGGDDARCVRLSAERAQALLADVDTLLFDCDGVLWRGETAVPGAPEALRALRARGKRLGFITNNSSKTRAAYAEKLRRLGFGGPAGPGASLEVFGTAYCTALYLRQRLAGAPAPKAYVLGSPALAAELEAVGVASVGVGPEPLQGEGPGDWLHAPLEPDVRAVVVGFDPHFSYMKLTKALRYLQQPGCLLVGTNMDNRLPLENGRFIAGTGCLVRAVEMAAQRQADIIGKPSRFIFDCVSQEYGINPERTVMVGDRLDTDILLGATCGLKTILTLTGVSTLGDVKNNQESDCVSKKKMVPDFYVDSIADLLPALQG
Protocol: In order to examine the effect of various compounds on G3PP activity, human G3PP (hG3PP) was overexpressed in 293T cells, using a plasmid vector. Simultaneously control cells received GFP (Green Fluorescent Protein) expression plasmid. After 72 h following transfection, cells were harvested and whole cell extracts were prepared in Krebs Ringer Buffer (KRBH). G3PP was assayed using […] G3PP cell extract protein (or GFP control extract) with 10 mM Gro3P substrate and 2 or 10 mM test organic acid (R-hydroxy butyric acid, glycolate, succinate, citrate, malate, fumarate, lactate and malonate). Incubations were for 30 min at 30° C. Then the reactions were stopped by adding perchloric acid and glycerol released was measured using Γ-^32P-labeled ATP plus glycerokinase. The amount of glycerol release is proportional to the activity of hG3PP in the cell extracts.

INS832/13 β-cells = assay: Free fatty acids and glycerol release from INS832/13 cells; format: cell-based, rat; conditions: 50 μM orlistat, 2 h
Protocol: (§1) Free fatty acids and glycerol release. For FFA determinations, isolated rat islets were pre-incubated for 1 h in KRBH containing 2 mM glutamine and at 4 mM glucose, 50 μM carnitine and then incubated for 2 h at 4, 10, 16 and 25 mM glucose. The low and high glucose concentrations were 2 and 10 mM, respectively, when INS832/13 cells were used. Incubations were done without and with the panlipase inhibitor, orlistat. Cells and islets were harvested after incubations for protein extraction. FFA released into the medium were extracted by a modified Dole-Meinertz extraction procedure (Puttmann et al., 1993). Briefly, the media (0.5 ml), in Pyrex glass tubes, were mixed with the internal standard [^2H31]-palmitic acid and extracted with 2.5 ml of a solvent mixture containing isopropanol-n-heptane-2M phosphoric acid (40:10:1, v/v). […] The dried fatty acids were derivatized with phenacylbromide and quantified by reverse phase HPLC (Mehta et al., 1998) using a Zorbax Eclipse plus XDB analytical C18 column (4.6×250 mm; 5 μm; Agilent Technology). FFA were eluted using methanol/water (92.5:7.5, v/v) at a flow rate of 1.5 ml/min and absorbance of eluting FFA-phenacyl derivatives was measured at 242 and 254 nm. […] Glycerol release was determined by a radiometric glycerol assay (Bradley and Kaslow, 1989) using [Γ-^32P]ATP and glycerokinase.

rat islets = assay: Free fatty acids and glycerol release from isolated rat islets; format: cell-based; conditions: 50 μM orlistat, 2 h
Protocol: Islet and hepatocyte isolation. Pancreatic islets were isolated from rats and mice (Peyot et al., 2009). Isolated islets were cultured overnight at 37° C. in complete RPMI 1640 medium. Hepatocytes were isolated from rats by in situ collagenase perfusion and were seeded in DMEM complete medium (Merlen et al., 2014).
as §1, with “v/v). After thorough mixing by vortex, the tubes were kept in a bath sonicator (Branson Ultrasonic) and sonicated for 2 min with 30 s intervals, avoiding sample heating. After rigorous mixing by vortex, the tubes were let stand at room temperature for 10 min, and then heptane (1 ml) and water (1.5 ml) were added and the tubes were thoroughly mixed by vortex followed by sonication for 1 min. Then the tubes were centrifuged at 1000×g for 10 min at 4° C.” for “v/v).”, “glycerokinase. […]” for “glycerokinase.”

[1] = substrate: O=P(O)(O)OCC(O)CO; assay: purified protein, by the assay type; conditions: other: substrate glycerol-3-phosphate; pH 7.5

O=C(O)CCC(=O)O [succinate]
G3PP activity (glycerol released) (human G3PP (hG3PP)): marked stimulation

CCCCCCCCCCC[C@@H](C[C@@H]1OC(=O)[C@H]1CCCCCC)OC(=O)[C@H](CC(C)C)NC=O [orlistat]
glycerol release (INS832/13 β-cells; elevated glucose concentration): not inhibited | FFA release (lipolysis) (INS832/13 β-cells; high glucose concentrations): reduction | glycerol release (rat islets; elevated glucose concentration): not inhibited | FFA release (lipolysis) (rat islets; high glucose concentrations): reduction | glycerol release (rat islets; medium concentration of glucose (10 mM)): moderate inhibition

O=C(O)/C=C/C(=O)O [fumarate]
G3PP activity (glycerol released) (human G3PP (hG3PP)): do not activate similarly

O=C(O)CC(O)C(=O)O (stereo not drawn) [malate]
G3PP activity (glycerol released) (human G3PP (hG3PP)): do not activate similarly

O=C(O)CC(=O)O [malonate]
G3PP activity (glycerol released) (human G3PP (hG3PP)): do not activate similarly

CC(O)CC(=O)O (stereo not drawn) [beta-hydroxybutyrate]
G3PP activity (glycerol released) (human G3PP (hG3PP)): stimulated

B1: Recombinant human PGP (Homo sapiens) (protein)
chain: MAAAEAGGDDARCVRLSAERAQALLADVDTLLFDCDGVLWRGETAVPGAPEALRALRARGKRLGFITNNSSKTRAAYAEKLRRLGFGGPAGPGASLEVFGTAYCTALYLRQRLAGAPAPKAYVLGSPALAAELEAVGVASVGVGPEPLQGEGPGDWLHAPLEPDVRAVVVGFDPHFSYMKLTKALRYLQQPGCLLVGTNMDNRLPLENGRFIAGTGCLVRAVEMAAQRQADIIGKPSRFIFDCVSQEYGINPERTVMVGDRLDTDILLGATCGLKTILTLTGVSTLGDVKNNQESDCVSKKKMVPDFYVDSIADLLPALQG
Km [1]: 1500 µM | kcat [1]: 0.1 s⁻¹
